EP2649091B1, “IMMUNE RESTRICTED PEPTIDES WITH INCREASED EFFICACY” (Stichting Het Nederlands Kanker Instituut, priority 2010, dated 2012)
ALG = not defined here; PHG = not defined here

Tests used:
[1] = target: HLA-A0201 (Homo sapiens, UniProt P04439, D140Y/D185E/D98H/E176V/E277Q/G131W/G231S/I119V/I121R/I166T/I218V/L300P/L318F/N151K/N90K/P208A/P217A/Q86G/Q94H/R138H/R169H/T345S); assay type: binding
[2] = test system: SVYDFFVWL (TRP-2 180-188) reactive T cells; experiment: T cell activation time course assay, IFNγ production (FACS), TRP-2 epitope; conditions: for % CD8+ T cells producing IFN-γ peptide concentrations in picomolar 24H 0.5 / Geometric mean IFN-γ in arbitrary fluorescence units peptide concentrations in picomolar 24H 0.5 / % CD8+ T cells producing IFN-γ peptide concentrations in picomolar 48H 0.5 / Geometric mean IFN-γ in arbitrary fluorescence units peptide concentrations in picomolar 48H 0.5: peptide 0.5 pM; for % CD8+ T cells producing IFN-γ peptide concentrations in picomolar 24H 50 / Geometric mean IFN-γ in arbitrary fluorescence units peptide concentrations in picomolar 24H 50 / % CD8+ T cells producing IFN-γ peptide concentrations in picomolar 48H 50 / Geometric mean IFN-γ in arbitrary fluorescence units peptide concentrations in picomolar 48H 50: peptide 50 pM; for % CD8+ T cells producing IFN-γ peptide concentrations in picomolar 24H 5·10^3 / Geometric mean IFN-γ in arbitrary fluorescence units peptide concentrations in picomolar 24H 5·10^3 / % CD8+ T cells producing IFN-γ peptide concentrations in picomolar 48H 5·10^3 / Geometric mean IFN-γ in arbitrary fluorescence units peptide concentrations in picomolar 48H 5·10^3: peptide 5·10^3 pM
[3] = test system: HLA-A2::Mart-1(26-35) reactive T cells stimulated by T2 cells; experiment: T cell activation time course assay, IFNγ production (FACS), Mart-1 epitope; assay type: cell-based; conditions: for % CD8+ T cells producing IFN-γ 0H / Geometric mean IFN-γ in arbitrary fluorescence units 0H: time point 0H (basal); for % CD8+ T cells producing IFN-γ 2H / Geometric mean IFN-γ in arbitrary fluorescence units 2H: time point 2H; for % CD8+ T cells producing IFN-γ 4H / Geometric mean IFN-γ in arbitrary fluorescence units 4H: time point 4H; for % CD8+ T cells producing IFN-γ 24H / Geometric mean IFN-γ in arbitrary fluorescence units 24H: time point 24H; for % CD8+ T cells producing IFN-γ 24H / Geometric mean IFN-γ in arbitrary fluorescence units 24H / % CD8+ T cells producing IFN-γ 48H / Geometric mean IFN-γ in arbitrary fluorescence units 48H: free peptide washed away; for % CD8+ T cells producing IFN-γ 48H / Geometric mean IFN-γ in arbitrary fluorescence units 48H: time point 48H

[CSME][CpALA]YDFFVW[PRG]
% inhibition at T=4H and T=24H FP 4h [1]: 85%
% inhibition at T=4H and T=24H FP 24h [1]: 83%
% CD8+ T cells producing IFN-γ peptide concentrations in picomolar 24H 0.5 [2]: 1%
Geometric mean IFN-γ in arbitrary fluorescence units peptide concentrations in picomolar 24H 0.5 [2]: 69 arbitrary fluorescence units
% CD8+ T cells producing IFN-γ peptide concentrations in picomolar 24H 50 [2]: 5%
Geometric mean IFN-γ in arbitrary fluorescence units peptide concentrations in picomolar 24H 50 [2]: 73 arbitrary fluorescence units
% CD8+ T cells producing IFN-γ peptide concentrations in picomolar 24H 5·10^3 [2]: 27%
Geometric mean IFN-γ in arbitrary fluorescence units peptide concentrations in picomolar 24H 5·10^3 [2]: 147 arbitrary fluorescence units
% CD8+ T cells producing IFN-γ peptide concentrations in picomolar 48H 0.5 [2]: 0%
Geometric mean IFN-γ in arbitrary fluorescence units peptide concentrations in picomolar 48H 0.5 [2]: 58 arbitrary fluorescence units
% CD8+ T cells producing IFN-γ peptide concentrations in picomolar 48H 50 [2]: 1%
Geometric mean IFN-γ in arbitrary fluorescence units peptide concentrations in picomolar 48H 50 [2]: 68 arbitrary fluorescence units
% CD8+ T cells producing IFN-γ peptide concentrations in picomolar 48H 5·10^3 [2]: 14%
Geometric mean IFN-γ in arbitrary fluorescence units peptide concentrations in picomolar 48H 5·10^3 [2]: 105 arbitrary fluorescence units

[CSME][NVA]AGIGILT[PRG]
% inhibition at T=4H and T=24H FP 4h [1]: 63%
% inhibition at T=4H and T=24H FP 24h [1]: 60%
IC50 Ratio [1]: 2.8

[CSME][NVA]YDFFVW[PRG]
% inhibition at T=4H and T=24H FP 4h [1]: 78%
% inhibition at T=4H and T=24H FP 24h [1]: 78%
% CD8+ T cells producing IFN-γ peptide concentrations in picomolar 24H 0.5 [2]: 0%
Geometric mean IFN-γ in arbitrary fluorescence units peptide concentrations in picomolar 24H 0.5 [2]: 67 arbitrary fluorescence units
% CD8+ T cells producing IFN-γ peptide concentrations in picomolar 24H 50 [2]: 6%
Geometric mean IFN-γ in arbitrary fluorescence units peptide concentrations in picomolar 24H 50 [2]: 80 arbitrary fluorescence units
% CD8+ T cells producing IFN-γ peptide concentrations in picomolar 24H 5·10^3 [2]: 26%
Geometric mean IFN-γ in arbitrary fluorescence units peptide concentrations in picomolar 24H 5·10^3 [2]: 175 arbitrary fluorescence units
% CD8+ T cells producing IFN-γ peptide concentrations in picomolar 48H 0.5 [2]: 1%
Geometric mean IFN-γ in arbitrary fluorescence units peptide concentrations in picomolar 48H 0.5 [2]: 93 arbitrary fluorescence units
% CD8+ T cells producing IFN-γ peptide concentrations in picomolar 48H 50 [2]: 1%
Geometric mean IFN-γ in arbitrary fluorescence units peptide concentrations in picomolar 48H 50 [2]: 67 arbitrary fluorescence units
% CD8+ T cells producing IFN-γ peptide concentrations in picomolar 48H 5·10^3 [2]: 26%
Geometric mean IFN-γ in arbitrary fluorescence units peptide concentrations in picomolar 48H 5·10^3 [2]: 130 arbitrary fluorescence units

[PHG]AAGIGI[4-FPHE]T[NLE]
% inhibition at T=4H and T=24H FP 4h [1]: 63%
% inhibition at T=4H and T=24H FP 24h [1]: 66%
IC50 Ratio [1]: 6.8

[PHG][2-AOC]YDFFVWL
% inhibition at T=4H and T=24H FP 4h [1]: 90%
% inhibition at T=4H and T=24H FP 24h [1]: 75%
% CD8+ T cells producing IFN-γ peptide concentrations in picomolar 24H 0.5 [2]: 0%
Geometric mean IFN-γ in arbitrary fluorescence units peptide concentrations in picomolar 24H 0.5 [2]: 85 arbitrary fluorescence units
% CD8+ T cells producing IFN-γ peptide concentrations in picomolar 24H 50 [2]: 14%
Geometric mean IFN-γ in arbitrary fluorescence units peptide concentrations in picomolar 24H 50 [2]: 95 arbitrary fluorescence units
% CD8+ T cells producing IFN-γ peptide concentrations in picomolar 24H 5·10^3 [2]: 30%
Geometric mean IFN-γ in arbitrary fluorescence units peptide concentrations in picomolar 24H 5·10^3 [2]: 224 arbitrary fluorescence units
% CD8+ T cells producing IFN-γ peptide concentrations in picomolar 48H 0.5 [2]: 1%
Geometric mean IFN-γ in arbitrary fluorescence units peptide concentrations in picomolar 48H 0.5 [2]: 75 arbitrary fluorescence units
% CD8+ T cells producing IFN-γ peptide concentrations in picomolar 48H 50 [2]: 3%
% CD8+ T cells producing IFN-γ peptide concentrations in picomolar 48H 5·10^3 [2]: 33%
Geometric mean IFN-γ in arbitrary fluorescence units peptide concentrations in picomolar 48H 5·10^3 [2]: 184 arbitrary fluorescence units

[PHG][2-AOC]YDFFVW[PRG]
% inhibition at T=4H and T=24H FP 4h [1]: 83%
% inhibition at T=4H and T=24H FP 24h [1]: 78%
% CD8+ T cells producing IFN-γ peptide concentrations in picomolar 24H 0.5 [2]: 0%
Geometric mean IFN-γ in arbitrary fluorescence units peptide concentrations in picomolar 24H 0.5 [2]: 95 arbitrary fluorescence units
% CD8+ T cells producing IFN-γ peptide concentrations in picomolar 24H 50 [2]: 1%
Geometric mean IFN-γ in arbitrary fluorescence units peptide concentrations in picomolar 24H 50 [2]: 68 arbitrary fluorescence units
% CD8+ T cells producing IFN-γ peptide concentrations in picomolar 24H 5·10^3 [2]: 20%
Geometric mean IFN-γ in arbitrary fluorescence units peptide concentrations in picomolar 24H 5·10^3 [2]: 120 arbitrary fluorescence units
% CD8+ T cells producing IFN-γ peptide concentrations in picomolar 48H 0.5 [2]: 1%
Geometric mean IFN-γ in arbitrary fluorescence units peptide concentrations in picomolar 48H 0.5 [2]: 79 arbitrary fluorescence units
% CD8+ T cells producing IFN-γ peptide concentrations in picomolar 48H 50 [2]: 0%
Geometric mean IFN-γ in arbitrary fluorescence units peptide concentrations in picomolar 48H 50 [2]: 78 arbitrary fluorescence units
% CD8+ T cells producing IFN-γ peptide concentrations in picomolar 48H 5·10^3 [2]: 0%
Geometric mean IFN-γ in arbitrary fluorescence units peptide concentrations in picomolar 48H 5·10^3 [2]: 78 arbitrary fluorescence units

[PHG][NVA]AGIGILT[ALG] ({PHG-NVA}-AGIGILT-{ALG}; reading uncertain; also: printed as [PHG][NVA]AGIGILT[ALG])
% inhibition at T=4H and T=24H FP 4h [1]: 65%
% inhibition at T=4H and T=24H FP 24h [1]: 64%
IC50 Ratio [1]: 18.9

[am-phg]AAGIGI[4-FPHE]TV
% inhibition at T=4H and T=24H FP 4h [1]: 62%
% inhibition at T=4H and T=24H FP 24h [1]: 59%
IC50 Ratio [1]: 2.1

[am-phg]LAGIGILT[PRG]
% CD8+ T cells producing IFN-γ 0H ([3]; peptide 0.5 pM): 0%
Geometric mean IFN-γ in arbitrary fluorescence units 0H ([3]; peptide 0.5 pM): 94 arbitrary fluorescence units
% CD8+ T cells producing IFN-γ 2H ([3]; peptide 0.5 pM): 27%
Geometric mean IFN-γ in arbitrary fluorescence units 2H ([3]; peptide 0.5 pM): 214 arbitrary fluorescence units
% CD8+ T cells producing IFN-γ 4H ([3]; peptide 0.5 pM): 29%
Geometric mean IFN-γ in arbitrary fluorescence units 4H ([3]; peptide 0.5 pM): 345 arbitrary fluorescence units
% CD8+ T cells producing IFN-γ 24H ([3]; peptide 0.5 pM): 15%
Geometric mean IFN-γ in arbitrary fluorescence units 24H ([3]; peptide 0.5 pM): 159 arbitrary fluorescence units
% CD8+ T cells producing IFN-γ 48H ([3]; peptide 0.5 pM): 3%
Geometric mean IFN-γ in arbitrary fluorescence units 48H ([3]; peptide 0.5 pM): 103 arbitrary fluorescence units
% CD8+ T cells producing IFN-γ 0H ([3]; peptide 50 pM): 0%
Geometric mean IFN-γ in arbitrary fluorescence units 0H ([3]; peptide 50 pM): 105 arbitrary fluorescence units
% CD8+ T cells producing IFN-γ 2H ([3]; peptide 50 pM): 22%
Geometric mean IFN-γ in arbitrary fluorescence units 2H ([3]; peptide 50 pM): 249 arbitrary fluorescence units
% CD8+ T cells producing IFN-γ 4H ([3]; peptide 50 pM): 31%
Geometric mean IFN-γ in arbitrary fluorescence units 4H ([3]; peptide 50 pM): 480 arbitrary fluorescence units
% CD8+ T cells producing IFN-γ 24H ([3]; peptide 50 pM): 28%
Geometric mean IFN-γ in arbitrary fluorescence units 24H ([3]; peptide 50 pM): 342 arbitrary fluorescence units
% CD8+ T cells producing IFN-γ 48H ([3]; peptide 50 pM): 18%
Geometric mean IFN-γ in arbitrary fluorescence units 48H ([3]; peptide 50 pM): 215 arbitrary fluorescence units
